Where two headings read alike, the source gives them in different places.
Legend:
[1] = target: T1, human DGKα (Homo sapiens, UniProt P23743); test: DGKα LIPGLO assay (extruded liposome substrate), in vitro DGK inhibition; assay type: biochemical; settings: liposome (LIPGLO) assay; read-out: DGKa LIPGLO IC50
T1 construct: TVMV protease cleavage site (C); Hexa-His (C); made in house; host or cells: Sf9 insect cells (baculovirus, Bac-to-Bac)

[2] = system: Human venous whole blood; test: Human whole blood IFN-γ assay; assay type: cell-based; settings: human whole blood, normalized to 3 μM reference compound with anti-CD3 plus anti-CD28 as 100% activation, read-out: INFg Whole Blood Normalized Agonist EC50;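 also: blood from healthy donors exposed to compound for 1 h before stimulation with anti-CD3 and anti-CD28 at 1 µg/mL each, IFN-γ quantified in supernatant by AlphaLISA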
[3] = target: T2, human DGKζ (Homo sapiens, UniProt Q13574); test: DGKζ LIPGLO assay (extruded liposome substrate), in vitro DGK inhibition; assay type: biochemical; settings: liposome (LIPGLO) assay; read-out: DGKz LIPGLO IC50
T2 construct: TVMV protease cleavage site (C); Hexa-His (C); made in house; host or cells: Sf9 insect cells (baculovirus, Bac-to-Bac)
T2 sequence (Q13574 with tags, fused parts or gaps isoform Q13574-4): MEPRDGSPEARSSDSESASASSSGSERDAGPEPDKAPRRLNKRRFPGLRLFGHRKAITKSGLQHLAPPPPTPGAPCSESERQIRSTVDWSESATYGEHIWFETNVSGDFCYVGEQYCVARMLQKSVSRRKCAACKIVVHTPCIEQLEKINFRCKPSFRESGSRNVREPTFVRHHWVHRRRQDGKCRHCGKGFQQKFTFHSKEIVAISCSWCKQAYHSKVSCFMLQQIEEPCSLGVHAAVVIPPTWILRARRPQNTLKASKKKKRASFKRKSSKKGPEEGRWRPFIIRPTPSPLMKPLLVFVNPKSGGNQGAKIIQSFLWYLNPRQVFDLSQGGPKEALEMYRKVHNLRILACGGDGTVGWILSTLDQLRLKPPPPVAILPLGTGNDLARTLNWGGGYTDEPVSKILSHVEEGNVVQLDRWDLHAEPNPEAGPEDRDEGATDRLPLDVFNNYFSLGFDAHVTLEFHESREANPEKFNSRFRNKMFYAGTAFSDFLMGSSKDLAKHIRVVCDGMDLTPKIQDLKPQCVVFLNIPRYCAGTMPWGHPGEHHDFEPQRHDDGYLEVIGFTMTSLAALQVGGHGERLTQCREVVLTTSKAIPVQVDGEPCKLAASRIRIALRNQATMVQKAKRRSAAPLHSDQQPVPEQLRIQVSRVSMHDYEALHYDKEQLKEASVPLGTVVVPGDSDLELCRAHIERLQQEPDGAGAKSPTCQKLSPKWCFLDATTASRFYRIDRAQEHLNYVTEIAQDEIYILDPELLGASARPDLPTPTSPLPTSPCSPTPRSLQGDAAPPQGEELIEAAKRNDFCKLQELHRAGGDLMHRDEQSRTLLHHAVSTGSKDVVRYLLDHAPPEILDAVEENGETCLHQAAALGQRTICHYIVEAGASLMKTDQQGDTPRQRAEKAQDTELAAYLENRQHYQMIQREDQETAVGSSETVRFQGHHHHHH

T1 sequence (P23743 with tags, fused parts or gaps): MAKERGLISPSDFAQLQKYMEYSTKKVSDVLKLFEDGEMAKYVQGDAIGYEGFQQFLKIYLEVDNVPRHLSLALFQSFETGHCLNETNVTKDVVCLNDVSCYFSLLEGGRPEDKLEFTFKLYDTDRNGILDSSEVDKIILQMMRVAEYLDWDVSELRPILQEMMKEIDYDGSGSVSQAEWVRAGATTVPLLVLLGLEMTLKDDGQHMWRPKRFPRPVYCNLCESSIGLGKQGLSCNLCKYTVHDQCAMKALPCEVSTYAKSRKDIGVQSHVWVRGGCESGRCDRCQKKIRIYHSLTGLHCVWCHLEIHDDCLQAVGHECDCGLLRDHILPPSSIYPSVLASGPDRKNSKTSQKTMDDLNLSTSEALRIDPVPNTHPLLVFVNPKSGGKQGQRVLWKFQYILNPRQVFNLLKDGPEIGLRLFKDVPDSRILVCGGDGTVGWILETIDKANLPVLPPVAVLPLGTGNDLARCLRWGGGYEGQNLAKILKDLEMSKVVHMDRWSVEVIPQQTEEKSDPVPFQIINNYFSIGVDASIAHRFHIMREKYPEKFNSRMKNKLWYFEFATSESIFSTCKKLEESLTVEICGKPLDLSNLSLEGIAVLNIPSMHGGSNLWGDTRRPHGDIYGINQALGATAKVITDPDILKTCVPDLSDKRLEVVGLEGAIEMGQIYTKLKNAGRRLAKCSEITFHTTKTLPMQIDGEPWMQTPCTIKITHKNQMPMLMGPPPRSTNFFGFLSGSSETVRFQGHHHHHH

IC50 [1] | IC50 [3] | SMILES | EC50 [2] | EC50 ([2]; Homo sapiens, 24 h)
450 nM | 2100 nM | C[C@@H]1CN(c2c(C#N)c(=O)n(C)c3ccc(C#N)nc23)CCN1C(c1ccc(F)cc1)c1nc(C2CC2)no1 (single isomer, unassigned) [Example 1029] | 3600 nM | 
2200 nM | 1100 nM | C[C@@H]1CN(c2c(C#N)c(=O)n(C)c3ccc(C#N)nc23)CCN1C(c1ccc(F)cc1)c1nc(C2CC2)no1 (single isomer, unassigned) [Example 1030] | 670 nM | 
36 nM | 43 nM | CC[C@H]1CN(C(c2cccc(F)c2)c2ccc(F)cn2)[C@H](CC)CN1c1cc(=O)n(C)c2ccc(C#N)nc12 (single isomer, unassigned) [Example 1041] |  | 230 nM
170 nM | 63 nM | CC[C@H]1CN(C(c2cccc(F)c2)c2ccc(F)cn2)[C@H](CC)CN1c1cc(=O)n(C)c2ccc(C#N)nc12 (single isomer, unassigned) [Example 1042] | 130 nM | 
49 nM | 290 nM | CC[C@H]1CN(C(c2ccc(F)cc2)c2ccccn2)[C@H](CC)CN1c1cc(=O)n(C)c2ccc(C#N)nc12 (single isomer, unassigned) [Example 1043] |  | 390 nM
560 nM | 120 nM | CC[C@H]1CN(C(c2ccc(F)cc2)c2cccc(C(F)(F)F)n2)[C@H](CC)CN1c1cc(=O)n(C)c2ccc(C#N)nc12 (single isomer, unassigned) [Example 1045] |  | 170 nM
90 nM | 54 nM | CC[C@H]1CN(C(c2ccc(F)cc2)c2cccc(C(F)(F)F)n2)[C@H](CC)CN1c1cc(=O)n(C)c2ccc(C#N)nc12 (single isomer, unassigned) [Example 1046] | 140 nM | 
15 nM | 42 nM | CC[C@H]1CN(C(C)c2ccc(F)cc2)[C@H](CC)CN1c1cc(=O)n(C)c2ccc(C#N)nc12 (single isomer, unassigned) [Example 1049] | 130 nM | 
510 nM | 900 nM | CC[C@H]1CN(C(C)c2ccc(F)cc2)[C@H](CC)CN1c1cc(=O)n(C)c2ccc(C#N)nc12 (single isomer, unassigned) [Example 1050] | 4400 nM | 
270 nM | 210 nM | CC[C@H]1CN(C(C)c2ccc(C(F)(F)F)cc2)[C@H](CC)CN1c1cc(=O)n(C)c2ccc(C#N)nc12 (single isomer, unassigned) [Example 1051] | 42 nM | 
2500 nM | 2000 nM | CC[C@H]1CN(C(C)c2ccc(C(F)(F)F)cc2)[C@H](CC)CN1c1cc(=O)n(C)c2ccc(C#N)nc12 (single isomer, unassigned) [Example 1052] | 190 nM | 
21 nM | 140 nM | CC[C@H]1CN(C(C)c2ccc(OC(F)(F)F)cc2)[C@H](CC)CN1c1cc(=O)n(C)c2ccc(C#N)nc12 (single isomer, unassigned) [Example 1053] | 210 nM | 
470 nM | 590 nM | CC[C@H]1CN(C(C)c2ccc(OC(F)(F)F)cc2)[C@H](CC)CN1c1cc(=O)n(C)c2ccc(C#N)nc12 (single isomer, unassigned) [Example 1054] | 2700 nM | 
17 nM | 16 nM | CC[C@H]1CN(C(C)c2ccc(F)cc2F)[C@H](CC)CN1c1cc(=O)n(C)c2ccc(C#N)nc12 (single isomer, unassigned) [Example 1055] | 16 nM | 
880 nM | 590 nM | CC[C@H]1CN(C(C)c2ccc(F)cc2F)[C@H](CC)CN1c1cc(=O)n(C)c2ccc(C#N)nc12 (single isomer, unassigned) [Example 1056] | 580 nM | 
340 nM | 630 nM | CCC(c1ccc(OC(F)(F)F)cc1)N1C[C@H](CC)N(c2cc(=O)n(C)c3ccc(C#N)nc23)C[C@H]1CC (single isomer, unassigned) [Example 1060] |  | 2500 nM
43 nM | 92 nM | CC[C@H]1CN(C(c2ccc(F)cc2)c2cocn2)[C@H](CC)CN1c1cc(=O)n(C)c2ccc(C#N)nc12 (single isomer, unassigned) [Example 1068] | 250 nM | 
60 nM | 910 nM | CC[C@H]1CN(C(c2ccc(F)cc2)c2cocn2)[C@H](CC)CN1c1cc(=O)n(C)c2ccc(C#N)nc12 (single isomer, unassigned) [Example 1069] | 2100 nM | 
13 nM | 180 nM | CC[C@H]1CN(C(c2ccc(F)cc2)c2cscn2)[C@H](CC)CN1c1cc(=O)n(C)c2ccc(C#N)nc12 (single isomer, unassigned) [Example 1070] | 1100 nM | 
14 nM | 44 nM | CC[C@H]1CN(C(c2ccc(F)cc2)c2cscn2)[C@H](CC)CN1c1cc(=O)n(C)c2ccc(C#N)nc12 (single isomer, unassigned) [Example 1071] | 190 nM | 

IC50 [1] | IC50 [3] | SMILES | EC50 [2] | EC50 ([2]; Homo sapiens, 24 h)
100 nM | 750 nM | CC[C@H]1CN(C(c2ccc(F)cc2)c2ccon2)[C@H](CC)CN1c1cc(=O)n(C)c2ccc(C#N)nc12 (single isomer, unassigned) [Example 1072] | 770 nM | 
33 nM | 120 nM | CC[C@H]1CN(C(c2ccc(F)cc2)c2ccon2)[C@H](CC)CN1c1cc(=O)n(C)c2ccc(C#N)nc12 (single isomer, unassigned) [Example 1073] | 210 nM | 
44 nM | 47 nM | CC[C@H]1CN(C(c2ccc(F)cc2)c2cc(C3CC3)on2)[C@H](CC)CN1c1cc(=O)n(C)c2ccc(C#N)nc12 (single isomer, unassigned) [Example 1074] |  | 42 nM
11 nM | 27 nM | CC[C@H]1CN(C(c2ccc(F)cc2)c2cc(C3CC3)on2)[C@H](CC)CN1c1cc(=O)n(C)c2ccc(C#N)nc12 (single isomer, unassigned) [Example 1075] | 37 nM | 
37 nM | 79 nM | CC[C@@H]1CN(c2cc(=O)n(C)c3ccc(C#N)nc23)[C@@H](C)CN1C(C)c1ccc(F)cc1 (single isomer, unassigned) [Example 1083] | 75 nM | 
1700 nM | 5000 nM | CC[C@@H]1CN(c2cc(=O)n(C)c3ccc(C#N)nc23)[C@@H](C)CN1C(C)c1ccc(F)cc1 (single isomer, unassigned) [Example 1084] | 2600 nM | 
360 nM | 32 nM | CC[C@@H]1CN(c2cc(=O)n(C)c3ccc(C#N)nc23)[C@@H](C)CN1C(C)c1ccc(C(F)(F)F)cc1F (single isomer, unassigned) [Example 1085] | 160 nM | 
6200 nM | 2100 nM | CC[C@@H]1CN(c2cc(=O)n(C)c3ccc(C#N)nc23)[C@@H](C)CN1C(C)c1ccc(C(F)(F)F)cc1F (single isomer, unassigned) [Example 1086] | 2500 nM | 
230 nM | 110 nM | CC[C@@H]1CN(c2cc(=O)n(C)c3ccc(C#N)nc23)[C@@H](C)CN1C(C)c1ccc(F)c(F)c1 (single isomer, unassigned) [Example 1091] | 140 nM | 
3700 nM | 4000 nM | CC[C@@H]1CN(c2cc(=O)n(C)c3ccc(C#N)nc23)[C@@H](C)CN1C(C)c1ccc(F)c(F)c1 (single isomer, unassigned) [Example 1092] | 3200 nM | 
250 nM | 180 nM | CC[C@@H]1CN(c2cc(=O)n(C)c3ccc(C#N)nc23)[C@@H](C)CN1C(C)c1ccc(C(F)(F)F)cc1 (single isomer, unassigned) [Example 1093] |  | 130 nM
270 nM | 120 nM | CC[C@@H]1CN(c2cc(=O)n(C)c3ccc(C#N)nc23)[C@@H](C)CN1C(c1ccc(F)cc1)c1ccc(C(F)(F)F)cn1 (single isomer, unassigned) [Example 1106] | 520 nM | 
65 nM | 130 nM | CC[C@@H]1CN(c2cc(=O)n(C)c3ccc(C#N)nc23)[C@@H](C)CN1C(c1ccc(F)cc1)c1ccc(C(F)(F)F)cn1 (single isomer, unassigned) [Example 1107] | 77 nM | 
730 nM | 470 nM | CC[C@@H]1CN(c2cc(=O)n(C)c3ccc(C#N)nc23)[C@@H](C)CN1C(c1cccc(F)c1)c1ccc(F)cn1 (single isomer, unassigned) [Example 1109] |  | 920 nM
56 nM | 400 nM | CC[C@@H]1CN(c2cc(=O)n(C)c3ccc(C#N)nc23)[C@@H](C)CN1C(c1ccc(F)cc1)c1ccon1 (single isomer, unassigned) [Example 1114] | 100 nM | 
84 nM | 1400 nM | CC[C@@H]1CN(c2cc(=O)n(C)c3ccc(C#N)nc23)[C@@H](C)CN1C(c1ccc(F)cc1)c1ccon1 (single isomer, unassigned) [Example 1115] | 800 nM | 
360 nM | 1500 nM | CC[C@H]1CN(C(c2cccc(F)c2)c2ccc(C)cn2)[C@H](C)CN1c1cc(=O)n(C)c2ccc(C#N)nc12 (single isomer, unassigned) [Example 1125] | 170 nM | 
1200 nM | 3000 nM | CC[C@H]1CN(C(c2cccc(F)c2)c2ccc(C)cn2)[C@H](C)CN1c1cc(=O)n(C)c2ccc(C#N)nc12 (single isomer, unassigned) [Example 1126] | 950 nM | 
110 nM | 1800 nM | CC[C@H]1CN(C(c2ccc(Cl)cc2)c2ccc(F)cn2)[C@H](C)CN1c1cc(=O)n(C)c2ccc(C#N)nc12 (single isomer, unassigned) [Example 1129] |  | 410 nM

Source: US10669272B2, “Substituted naphthyridinone compounds useful as T cell activators” (BRISTOL-MYERS SQUIBB COMPANY, priority 2018, dated 2020)
